Experimental data reported in ChEMBL document CHEMBL1142846, “Synthesis and cytotoxic activity of platinum complex immobilized by branched polyethylene glycol” (Bioorg Med Chem Lett, 2005).

Test: Inhibition concentration against C6 […] cells by the 3-(4,5-dimethylthiazol-2-yl)-2,5-diphenyltetrazoliumbromide (MTT) method
Format: functional, cell-based

CISPLATIN
IC50: 5.27 µM
